Measured values as given in ChEMBL document CHEMBL1152196, “Benzimidazole- and benzoxazole-based inhibitors of Rho kinase” (Bioorg Med Chem Lett, 2008).

Experiments:
[1] = Inhibition of PKA
[2] = biological target: T1, Rho-associated protein kinase 2 (Homo sapiens, UniProt O75116); test: Inhibition of ROCK2
[3] = Metabolic stability in human liver microsomes; type: ADME, Microsome
[4] = biological target: T1, Rho-associated protein kinase 2; test: Inhibition of ROCK2 assessed as myosin light chain phosphorylation by cell-based assay
CYP3A4 = CYP3A4 (Homo sapiens, UniProt P08684); test: Inhibition of CYP3A4 at 10 uM; type: ADME
CYP3A4, sequence (P08684 whole entry): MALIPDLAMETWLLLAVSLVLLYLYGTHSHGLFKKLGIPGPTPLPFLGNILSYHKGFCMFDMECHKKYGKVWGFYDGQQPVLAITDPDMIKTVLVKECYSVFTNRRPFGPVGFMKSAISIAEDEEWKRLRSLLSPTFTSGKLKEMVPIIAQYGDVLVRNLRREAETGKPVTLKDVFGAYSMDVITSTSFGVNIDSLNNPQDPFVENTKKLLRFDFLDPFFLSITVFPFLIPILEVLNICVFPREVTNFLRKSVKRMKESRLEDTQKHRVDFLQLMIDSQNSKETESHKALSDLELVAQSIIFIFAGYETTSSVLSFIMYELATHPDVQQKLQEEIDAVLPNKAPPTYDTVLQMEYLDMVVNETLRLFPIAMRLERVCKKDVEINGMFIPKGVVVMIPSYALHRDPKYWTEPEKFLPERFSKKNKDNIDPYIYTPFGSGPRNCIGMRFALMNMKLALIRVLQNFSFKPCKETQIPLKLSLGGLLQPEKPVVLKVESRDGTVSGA

CYP2C9 = CYP2C9 (Homo sapiens, UniProt P11712); test: Inhibition of CYP2C9 at 10 uM; type: ADME
CYP2C9, sequence (P11712 whole entry): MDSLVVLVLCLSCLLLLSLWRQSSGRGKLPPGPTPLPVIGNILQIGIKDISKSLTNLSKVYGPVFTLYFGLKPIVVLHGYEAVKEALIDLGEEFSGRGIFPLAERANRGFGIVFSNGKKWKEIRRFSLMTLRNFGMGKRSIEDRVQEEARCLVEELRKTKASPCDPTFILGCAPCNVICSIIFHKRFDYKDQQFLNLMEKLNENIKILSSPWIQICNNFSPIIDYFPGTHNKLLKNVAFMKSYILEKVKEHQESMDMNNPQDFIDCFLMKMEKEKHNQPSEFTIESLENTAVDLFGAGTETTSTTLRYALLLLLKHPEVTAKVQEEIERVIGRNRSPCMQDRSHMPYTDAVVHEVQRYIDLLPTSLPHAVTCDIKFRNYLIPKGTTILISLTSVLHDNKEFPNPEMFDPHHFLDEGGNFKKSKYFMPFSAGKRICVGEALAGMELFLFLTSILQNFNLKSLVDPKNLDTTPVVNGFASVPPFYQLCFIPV

CYP2D6 = CYP2D6 (Homo sapiens, UniProt P10635); test: Inhibition of CYP2D6 at 10 uM; type: ADME
CYP2D6, sequence (P10635 whole entry): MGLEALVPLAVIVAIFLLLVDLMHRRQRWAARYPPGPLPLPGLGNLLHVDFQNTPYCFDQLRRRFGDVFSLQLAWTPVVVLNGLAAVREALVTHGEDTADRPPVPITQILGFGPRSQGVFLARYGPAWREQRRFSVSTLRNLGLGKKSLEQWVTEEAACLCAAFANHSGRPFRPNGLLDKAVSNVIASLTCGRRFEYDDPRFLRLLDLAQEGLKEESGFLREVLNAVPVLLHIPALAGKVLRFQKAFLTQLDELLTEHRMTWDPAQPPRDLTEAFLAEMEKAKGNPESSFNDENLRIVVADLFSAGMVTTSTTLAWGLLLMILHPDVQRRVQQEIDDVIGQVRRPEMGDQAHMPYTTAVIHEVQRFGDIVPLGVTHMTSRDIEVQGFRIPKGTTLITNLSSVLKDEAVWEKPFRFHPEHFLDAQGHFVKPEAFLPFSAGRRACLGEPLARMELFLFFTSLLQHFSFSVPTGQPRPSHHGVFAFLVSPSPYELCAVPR

CYP1A2 = biological target: T2, CYP1A2 (Homo sapiens, UniProt P05177); test: Inhibition of CYP1A2 at 10 uM; type: ADME
T2 sequence (P05177 whole entry): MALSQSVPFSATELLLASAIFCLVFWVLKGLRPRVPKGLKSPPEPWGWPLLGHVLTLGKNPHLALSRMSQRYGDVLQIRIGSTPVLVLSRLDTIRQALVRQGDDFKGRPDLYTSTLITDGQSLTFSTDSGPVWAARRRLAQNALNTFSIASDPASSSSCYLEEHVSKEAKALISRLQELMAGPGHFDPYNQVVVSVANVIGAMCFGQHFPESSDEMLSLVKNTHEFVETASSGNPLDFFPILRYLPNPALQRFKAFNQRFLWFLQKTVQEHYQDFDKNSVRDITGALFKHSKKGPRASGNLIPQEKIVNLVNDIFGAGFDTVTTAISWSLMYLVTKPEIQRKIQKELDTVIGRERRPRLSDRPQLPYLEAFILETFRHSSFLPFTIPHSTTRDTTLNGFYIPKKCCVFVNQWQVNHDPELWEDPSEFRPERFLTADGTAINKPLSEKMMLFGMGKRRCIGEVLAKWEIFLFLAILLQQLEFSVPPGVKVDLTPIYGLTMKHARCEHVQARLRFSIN

[5] = Oral bioavailability in rat at 2 mg/kg; type: ADME, organism-based; conditions: in vivo
[6] = Selectivity for ROCK2 over PKA
[7] = AUC in rat at 2 mg/kg, po; type: ADME, organism-based; set-up: dose 2 mg/kg, route oral; conditions: plasma
[8] = Clearance in rat at 1 mg/kg, iv or 2 mg/kg, po; type: ADME, organism-based; conditions: in vivo
[9] = Half life in rat at 1 mg/kg, iv or 2 mg/kg, po; type: ADME, organism-based; conditions: in vivo
[10] = Volume of distribution at steady state in rat at 1 mg/kg, iv or 2 mg/kg, po; type: ADME, organism-based; conditions: in vivo, read-out: Vdss
[11] = Cmax in rat at 2 mg/kg, po; type: ADME, organism-based; set-up: dose 2 mg/kg, route oral; conditions: in vivo
[12] = biological target: Mitogen-activated protein kinase 10 (Homo sapiens, UniProt P53779); test: Inhibition of JNK3
Mitogen-activated protein kinase 10, sequence (P53779 whole entry): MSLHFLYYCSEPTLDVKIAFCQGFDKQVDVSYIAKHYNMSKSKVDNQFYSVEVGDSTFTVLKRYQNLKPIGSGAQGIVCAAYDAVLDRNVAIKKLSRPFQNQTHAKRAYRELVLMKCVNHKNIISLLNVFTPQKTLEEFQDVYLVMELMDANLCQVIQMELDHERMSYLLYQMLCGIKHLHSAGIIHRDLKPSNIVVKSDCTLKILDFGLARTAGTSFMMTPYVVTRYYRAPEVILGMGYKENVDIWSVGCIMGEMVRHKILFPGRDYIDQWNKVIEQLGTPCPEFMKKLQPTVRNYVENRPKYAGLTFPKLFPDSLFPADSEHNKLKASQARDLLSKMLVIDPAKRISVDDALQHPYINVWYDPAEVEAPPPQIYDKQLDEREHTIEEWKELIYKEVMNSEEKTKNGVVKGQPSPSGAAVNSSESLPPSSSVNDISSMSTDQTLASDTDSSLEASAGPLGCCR

[13] = biological target: RAC-alpha serine/threonine-protein kinase (Homo sapiens, UniProt P31749); test: Inhibition of Akt1
RAC-alpha serine/threonine-protein kinase, sequence (P31749 whole entry): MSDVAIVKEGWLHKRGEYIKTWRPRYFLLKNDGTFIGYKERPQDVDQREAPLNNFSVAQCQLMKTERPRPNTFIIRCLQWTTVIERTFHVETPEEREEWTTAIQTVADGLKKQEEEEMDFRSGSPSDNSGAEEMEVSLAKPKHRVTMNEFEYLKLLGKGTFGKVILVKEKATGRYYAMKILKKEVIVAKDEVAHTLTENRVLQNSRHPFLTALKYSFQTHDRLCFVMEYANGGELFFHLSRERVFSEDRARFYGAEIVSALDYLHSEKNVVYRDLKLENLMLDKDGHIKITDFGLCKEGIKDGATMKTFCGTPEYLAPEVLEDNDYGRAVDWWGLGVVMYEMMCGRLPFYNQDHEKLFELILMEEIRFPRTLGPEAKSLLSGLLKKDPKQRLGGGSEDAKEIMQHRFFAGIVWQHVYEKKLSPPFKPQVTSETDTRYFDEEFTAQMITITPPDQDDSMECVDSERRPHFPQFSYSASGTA

[14] = biological target: Mitogen-activated protein kinase 8 (Homo sapiens, UniProt P45983); test: Inhibition of JNK1
Mitogen-activated protein kinase 8, sequence (P45983 whole entry): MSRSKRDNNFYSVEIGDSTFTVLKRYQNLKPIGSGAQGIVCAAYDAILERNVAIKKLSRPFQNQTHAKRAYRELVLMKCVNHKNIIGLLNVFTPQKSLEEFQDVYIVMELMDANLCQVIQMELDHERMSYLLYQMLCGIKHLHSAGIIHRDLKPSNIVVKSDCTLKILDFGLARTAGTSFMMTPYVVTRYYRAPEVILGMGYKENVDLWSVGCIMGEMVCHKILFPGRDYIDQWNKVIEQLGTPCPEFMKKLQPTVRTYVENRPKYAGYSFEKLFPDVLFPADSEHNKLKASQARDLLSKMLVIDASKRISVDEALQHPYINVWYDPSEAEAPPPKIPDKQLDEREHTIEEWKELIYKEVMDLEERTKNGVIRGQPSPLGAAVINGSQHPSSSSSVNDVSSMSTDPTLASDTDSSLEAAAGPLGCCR

[15] = Inhibition of MRCK
[16] = Inhibition of p38 kinase

T1 sequence (O75116 whole entry): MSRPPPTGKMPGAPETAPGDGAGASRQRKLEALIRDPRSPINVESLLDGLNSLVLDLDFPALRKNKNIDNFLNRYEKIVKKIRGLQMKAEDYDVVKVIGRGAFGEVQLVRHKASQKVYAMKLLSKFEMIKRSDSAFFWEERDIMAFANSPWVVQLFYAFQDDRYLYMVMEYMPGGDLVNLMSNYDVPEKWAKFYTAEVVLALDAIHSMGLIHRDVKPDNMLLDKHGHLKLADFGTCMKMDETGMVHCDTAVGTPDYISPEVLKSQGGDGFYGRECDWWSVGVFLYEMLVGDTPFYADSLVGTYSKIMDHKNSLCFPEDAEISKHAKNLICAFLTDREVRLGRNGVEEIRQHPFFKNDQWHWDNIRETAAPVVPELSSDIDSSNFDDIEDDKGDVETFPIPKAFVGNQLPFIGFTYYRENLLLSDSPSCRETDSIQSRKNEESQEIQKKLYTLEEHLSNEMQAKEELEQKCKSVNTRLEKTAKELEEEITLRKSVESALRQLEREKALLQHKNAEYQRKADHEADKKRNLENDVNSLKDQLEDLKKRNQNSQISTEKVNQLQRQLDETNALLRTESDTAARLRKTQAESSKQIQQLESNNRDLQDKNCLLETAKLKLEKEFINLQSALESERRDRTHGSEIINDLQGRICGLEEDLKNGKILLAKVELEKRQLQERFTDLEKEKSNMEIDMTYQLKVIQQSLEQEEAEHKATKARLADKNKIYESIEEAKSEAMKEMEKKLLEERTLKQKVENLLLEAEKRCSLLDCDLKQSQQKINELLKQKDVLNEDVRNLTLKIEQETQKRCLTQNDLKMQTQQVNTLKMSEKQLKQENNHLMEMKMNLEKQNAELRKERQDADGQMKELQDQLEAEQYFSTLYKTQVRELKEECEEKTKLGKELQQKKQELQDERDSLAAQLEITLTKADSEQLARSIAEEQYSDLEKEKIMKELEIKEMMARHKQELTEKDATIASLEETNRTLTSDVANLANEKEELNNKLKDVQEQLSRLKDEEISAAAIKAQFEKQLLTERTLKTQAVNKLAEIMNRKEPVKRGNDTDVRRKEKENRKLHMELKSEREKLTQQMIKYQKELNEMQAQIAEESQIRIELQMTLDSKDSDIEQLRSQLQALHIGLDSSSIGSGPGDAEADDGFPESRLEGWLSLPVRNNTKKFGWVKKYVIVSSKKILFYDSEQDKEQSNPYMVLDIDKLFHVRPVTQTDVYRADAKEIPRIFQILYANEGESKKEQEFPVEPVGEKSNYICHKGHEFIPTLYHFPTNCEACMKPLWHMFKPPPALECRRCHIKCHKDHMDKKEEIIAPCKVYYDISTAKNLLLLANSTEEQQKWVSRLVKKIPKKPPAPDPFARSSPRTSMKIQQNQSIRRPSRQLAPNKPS

Compound | IC50 [1] | IC50 [2] | half-life [3] | IC50 [4] | further results
Cc1[nH]ncc1-c1ccc2nc(C3COc4ccccc4C3)[nH]c2c1 (stereo unspecified) | 122 nM | 9 nM | 30 min | – | –
Nc1nccc(-c2ccc3nc(C4COc5ccc(F)cc5C4)oc3c2)n1 (stereo unspecified) | 2910 nM | 15 nM | 91 min | 28 nM | –
Nc1nccc(-c2ccc3nc(C4COc5ccccc5C4)oc3c2)n1 (stereo unspecified) | 1340 nM | 27 nM | 57 min | – | inhibition at 10 µM (CYP3A4): -6%; inhibition at 10 µM (CYP2C9): -8%; inhibition at 10 µM (CYP2D6): -4%; inhibition at 10 µM (CYP1A2): 0%
Cc1ccc2c(c1)CC(c1nc3ccc(-c4ccnc(N)n4)cc3o1)CO2 (stereo unspecified) | 6390 nM | 78 nM | 25 min | – | –
COc1ccc2c(c1)CC(c1nc3ccc(-c4ccnc(N)n4)cc3o1)CO2 (stereo unspecified) | – | 2 nM | 34 min | 46 nM | bioavailability [5]: 63%; fold change (FC) [6]: 950; AUC [7]: 6.6 µM·h; clearance [8]: 8.4 mL/min/kg; half-life [9]: 156 min; Vd [10]: 1.6 L/kg; Cmax [11]: 970 nM
Nc1nccc(-c2ccc3nc(C4COc5ccc(F)cc5C4)[nH]c3c2)n1 (stereo unspecified) | 270 nM | 6 nM | 45 min | – | –
CC(C)Oc1ccc2c(c1)CC(c1nc3ccc(-c4ccnc(N)n4)cc3o1)CO2 (stereo unspecified) | – | 294 nM | – | – | –
c1ccc2c(c1)CC(c1nc3ccc(-c4ccncc4)cc3[nH]1)CO2 (stereo unspecified) | 317 nM | 2 nM | 29 min | < 6 nM | inhibition at 10 µM (CYP3A4): 96%; inhibition at 10 µM (CYP2C9): 95%; inhibition at 10 µM (CYP2D6): 92%; inhibition at 10 µM (CYP1A2): 90%
COc1ccc2c(c1)CC(c1nc3ccc(-c4ccnc(N)n4)cc3[nH]1)CO2 (stereo unspecified) | 602 nM | – | 28 min | 99 nM | bioavailability [5]: 35%; fold change (FC) [6]: 240; AUC [7]: 1.9 µM·h; clearance [8]: 17 mL/min/kg; half-life [9]: 138 min; Vd [10]: 0.89 L/kg; Cmax [11]: 900 nM
Nc1nccc(-c2ccc3nc(C4COc5ccc(C(=O)NC6CC6)cc5C4)[nH]c3c2)n1 (stereo unspecified) | 669 nM | < 1 nM | 79 min | 212 nM | –
Nc1nccc(-c2ccc3nc(C4COc5ccccc5C4)[nH]c3c2)n1 (stereo unspecified) | 198 nM | 8 nM | 44 min | 66 nM | inhibition at 10 µM (CYP3A4): -3%; inhibition at 10 µM (CYP2C9): 13%; inhibition at 10 µM (CYP2D6): 15%; inhibition at 10 µM (CYP1A2): 31%
COC(=O)c1ccc2c(c1)CC(c1nc3ccc(-c4ccnc(N)n4)cc3[nH]1)CO2 (stereo unspecified) | 10200 nM | 6 nM | 18 min | 271 nM | –
COc1ccc2c(c1)CC(c1nc3c(F)cc(-c4ccnc(N)n4)cc3[nH]1)CO2 (stereo unspecified) | 397 nM | < 1 nM | – | < 6 nM | IC50 [12]: 16800 nM; IC50 [13]: 5000 nM; bioavailability [5]: 29%; AUC [7]: 2.2 µM·h; IC50 [14]: 14100 nM; IC50 [15]: 1100 nM; IC50 [16]: > 20000 nM; clearance [8]: 12 mL/min/kg; half-life [9]: 84 min; Vd [10]: 0.63 L/kg; Cmax [11]: 740 nM
COC(=O)c1ccc2c(c1)CC(c1nc3ccc(-c4ccnc(N)n4)cc3o1)CO2 (stereo unspecified) | – | 24 nM | – | – | –
c1ccc2c(c1)CC(c1nc3ccc(-c4cn[nH]c4)cc3[nH]1)CO2 (stereo unspecified) | 168 nM | 27 nM | 20 min | 86 nM | inhibition at 10 µM (CYP3A4): 47%; inhibition at 10 µM (CYP2C9): 84%; inhibition at 10 µM (CYP2D6): 84%; inhibition at 10 µM (CYP1A2): 51%
CC(C)Oc1ccc2c(c1)CC(c1nc3ccc(-c4ccnc(N)n4)cc3[nH]1)CO2 (stereo unspecified) | 6380 nM | 296 nM | – | – | –
Cc1[nH]ncc1-c1ccc2nc(C3COc4ccccc4C3)oc2c1 (stereo unspecified) | 778 nM | 9 nM | 70 min | 533 nM | –
Nc1nccc(-c2ccc3nc(C4COc5ccc(C(=O)NCc6ccccc6)cc5C4)[nH]c3c2)n1 (stereo unspecified) | 75 nM | < 1 nM | 25 min | 23 nM | –
c1ccc2c(c1)CC(c1nc3ccc(-c4cn[nH]c4)cc3o1)CO2 (stereo unspecified) | 1210 nM | 21 nM | 40 min | 330 nM | inhibition at 10 µM (CYP3A4): 15%; inhibition at 10 µM (CYP2C9): 80%; inhibition at 10 µM (CYP2D6): 41%; inhibition at 10 µM (CYP1A2): 27%
